# Test results from patent publication US20090012766A1, “Event Sequencer” (NATIONAL INSTITUTE OF ADVANCED INDUSTRIAL SCIENCE AND …, priority 2004, published 2009).
# What was measured:
# HEK293 cells = assay: Solid phase transfection with actin-like acting substances, gelatin as control (FIG. 1); type: cell-based, human
# Method: (§1) The final concentration of DNA was adjusted to 1 μg/μL. An actin-like acting substance was stored as a stock having a concentration of 10 μg/μL, in ddH2O. All dilutions were made using PBS, ddH2O, or Dulbecco's MEM. A series of dilutions, for example, 0.2 μg/μL, 0.27 μg/μL, 0.4 μg/μL, 0.53 μg/μL, 0.6 μg/μL, 0.8 μg/μL, 1.0 μg/μL, 1.07 μg/μL, 1.33 μg/μL, and the like, were formulated.
# In Example 2, the following 5 cells were used to confirm an effect: human mesenchymal stem cell (hMSCs, PT-2501, Cambrex BioScience Walkersville, Inc., MD); human embryonic renal cell (HEK293, RCB1637, RIKEN Cell Bank, JPN); NIH3T3-3 cell (RCB0150, RIKEN Cell Bank, JPN); HeLa cell (RCB0007, RIKEN Cell Bank, JPN); and HepG2(RCB1648, RIKEN Cell Bank, JPN). These cells were cultured in DMEM/10% IFS containing L-glutamine and penicillin/streptomycin.
# (§2) Transfection reagents and DNA were mixed to form a DNA-transfection reagent complex. Formation of the complex requires a certain period of time. Therefore, the mixture was spotted onto a solid phase support (e.g., a poly-L-lysine slide) using an arrayer. In Example 2, as a solid phase support, an APS slide, a MAS slide, and an uncoated slide were used, as well as a poly-L-lysine slide. These slides are available from Matsunami Glass (Kishiwada, Japan), or the like.
# Although the actin-like acting substance might be used during complex formation, it was also used immediately before spotting in the present Example.
# 300 μL of DNA concentrated buffer (EC buffer)+16 μL of an enhancer were mixed in an Eppendorf tube. The mixture was mixed with a Vortex, followed by incubation for 5 minutes. […]
# Gene introduction was evaluated by detection using, for example, immunofluorescence, fluorescence microscope examination, laser scanning, radioactive labels, and sensitive films, or emulsion.
# (§3) To quantify transfection efficiency, the present inventors use a DNA microarray scanner (GeneTAC UC4×4, Genomic Solutions Inc., MI). Total fluorescence intensity (arbitrary unit) was measured, and thereafter, fluorescence intensity per unit surface area was calculated.
# [1] = system: cells resistant or sensitive to the anticancer agent; assay: Time-lapse profiles of cells exposed to an anticancer agent; type: cell-based; conditions: 1 μM, 5 μM, 10 μM and the like
# Method: In this example, cisplatin was used as an exemplary anticancer agent and mixed into medium contacting cells. The concentration of the anticancer agent was selected as appropriate, such as 1 μM, 5 μM, 10 μM, and the like, to observe the reaction of the cells. Cisplatin was applied to cells resistant or sensitive to the anticancer agent. Time-lapse observation was conducted to produce profiles as in the above-described examples.
# Mesenchymal Stem Cells = assay: Solid phase transfection at varied fibronectin concentration on PLL, APS and uncoated slides (FIG. 7); type: cell-based, human
# Method: as §1, §2
# The growing cells were adjusted to a concentration of 10^7 cells/25 mL. The cells were plated on the slide in a 100×100×15 mm squared Petri dish or a 100 mm (radius)×15 mm circular dish. Transfection was conducted for about 40 hours. This period of time corresponded to about 2 cell cycles. The slide was treated for immunofluorescence.
# as §3
# In FIG. 7, slides coated with PLL (poly-L-lysine), APS and uncoated slides are shown.
# Human Mesenchymal Cell = assay: Cell adhesion profile, actin filaments and nuclear surface area with or without fibronectin (FIGS. 8-10); type: cell-based; conditions: presence of fibronectin
compound,measurement,setting,value
gelatin [reference compound],transfection in the system using the actin-like acting substance,HEK293 cells,transfection was not very successful
N.N.[Cl][Pt][Cl] [cisplatin],time-lapse profiles,[1],varied depending on the difference in cisplatin concentration and resistance/sensitivity
laminin,transfection in the system using the actin-like acting substance,HEK293 cells,transfection took place to a significant level
fibronectin,transfection in the system using the actin-like acting substance,HEK293 cells,transfection took place to a significant level
same,fibronectin concentration at which the effect was further increased,Mesenchymal Stem Cells; APS slides,> 1.07 µg/µL
same,fibronectin concentration at which transfection efficiency reached a plateau,Mesenchymal Stem Cells; PLL coating and absence of coating,more than 0.53 μg/μL
same,transfection efficiency as a function of fibronectin concentration,"Mesenchymal Stem Cells; fibronectin 0 to 1.33 μg/μL, PLL, APS, uncoated slides",increased with an increase in fibronectin concentration
same,surface area of the nucleus,Human Mesenchymal Cell,significantly increased
same,extension of adherent cells,Human Mesenchymal Cell; initial 3 hours of culture,full extension of cells
